# Measurements reported in PMC5666424, “Marine-Derived 2-Aminoimidazolone Alkaloids. Leucettamine B-Related Polyandrocarpamines Inhibit Mammalian and Protozoan DYRK & CLK Kinases” (Marine Drugs, 2017).
# Tests used:
# Test in all cases: KinomeScan
# Type in all cases: binding
# Conditions in all cases: 1 μM
# [1] = biological target: T1, ABL1(M351T)-phosphorylated (Homo sapiens, UniProt P00519, M351T)
# T1 construct: purchased DiscoverX (KINOMEscan)
# [2] = biological target: T2, ABL1(T315I)-phosphorylated (Homo sapiens, UniProt P00519, T315I)
# T2 construct: purchased DiscoverX (KINOMEscan)
# ACVR2B = biological target: T3, ACVR2B (Homo sapiens, UniProt Q13705)
# T3 construct: purchased DiscoverX (KINOMEscan)
# ALK = biological target: T4, ALK (Homo sapiens, UniProt Q9UM73)
# T4 construct: purchased DiscoverX (KINOMEscan)
# AMPK-alpha2 = biological target: T5, AMPK-alpha2 (Homo sapiens, UniProt P54646)
# T5 construct: purchased DiscoverX (KINOMEscan)
# T5 sequence (P54646 whole entry): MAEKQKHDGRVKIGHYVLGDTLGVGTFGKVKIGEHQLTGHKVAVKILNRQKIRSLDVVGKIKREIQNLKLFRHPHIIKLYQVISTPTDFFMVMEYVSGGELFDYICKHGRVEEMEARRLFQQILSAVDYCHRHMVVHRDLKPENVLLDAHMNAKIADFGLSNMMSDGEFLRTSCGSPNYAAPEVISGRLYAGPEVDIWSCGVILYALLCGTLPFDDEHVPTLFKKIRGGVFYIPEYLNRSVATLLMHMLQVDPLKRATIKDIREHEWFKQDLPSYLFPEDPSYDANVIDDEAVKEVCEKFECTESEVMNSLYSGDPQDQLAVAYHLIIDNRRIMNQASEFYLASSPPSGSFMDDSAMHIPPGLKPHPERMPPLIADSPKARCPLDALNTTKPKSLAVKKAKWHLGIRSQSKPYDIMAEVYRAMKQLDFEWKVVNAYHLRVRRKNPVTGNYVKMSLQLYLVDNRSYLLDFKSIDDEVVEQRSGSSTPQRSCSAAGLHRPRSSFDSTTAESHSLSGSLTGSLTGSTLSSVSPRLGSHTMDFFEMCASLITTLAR
# CAMK2B = biological target: T6, CAMK2B (Homo sapiens, UniProt Q13554)
# T6 construct: purchased DiscoverX (KINOMEscan)
# T6 sequence (Q13554 whole entry): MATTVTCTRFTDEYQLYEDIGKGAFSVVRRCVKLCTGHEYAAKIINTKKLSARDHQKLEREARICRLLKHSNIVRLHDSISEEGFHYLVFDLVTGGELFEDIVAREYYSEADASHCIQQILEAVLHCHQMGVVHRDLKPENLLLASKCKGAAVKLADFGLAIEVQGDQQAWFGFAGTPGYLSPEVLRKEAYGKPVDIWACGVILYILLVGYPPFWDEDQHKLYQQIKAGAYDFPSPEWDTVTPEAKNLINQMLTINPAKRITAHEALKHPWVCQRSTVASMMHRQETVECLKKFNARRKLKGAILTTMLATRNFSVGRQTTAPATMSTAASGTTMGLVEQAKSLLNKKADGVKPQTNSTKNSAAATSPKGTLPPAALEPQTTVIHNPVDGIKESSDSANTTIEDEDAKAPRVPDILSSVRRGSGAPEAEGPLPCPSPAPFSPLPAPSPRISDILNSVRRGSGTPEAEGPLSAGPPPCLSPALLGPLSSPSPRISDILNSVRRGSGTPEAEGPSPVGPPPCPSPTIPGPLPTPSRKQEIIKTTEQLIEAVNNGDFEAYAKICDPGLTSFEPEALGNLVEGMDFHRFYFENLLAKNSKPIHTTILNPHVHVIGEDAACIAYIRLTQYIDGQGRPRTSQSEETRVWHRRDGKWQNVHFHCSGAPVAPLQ
# CDK11 = biological target: T7, CDK11 (Homo sapiens, UniProt Q9BWU1)
# T7 construct: purchased DiscoverX (KINOMEscan)
# CDKL1 = biological target: T8, CDKL1 (Homo sapiens, UniProt Q00532)
# T8 construct: purchased DiscoverX (KINOMEscan)
# CSNK2A2 = biological target: T9, CSNK2A2 (Homo sapiens, UniProt P19784)
# T9 construct: purchased DiscoverX (KINOMEscan)
# DDR2 = biological target: T10, DDR2 (Homo sapiens, UniProt Q16832)
# T10 construct: purchased DiscoverX (KINOMEscan)
# DMPK2 = biological target: T11, DMPK2 (Homo sapiens, UniProt Q6DT37)
# T11 construct: purchased DiscoverX (KINOMEscan)
# EGFR(G719C) = biological target: T12, EGFR(G719C) (Homo sapiens, UniProt P00533, G719C)
# T12 construct: purchased DiscoverX (KINOMEscan)
# EGFR(G719S) = biological target: T13, EGFR(G719S) (Homo sapiens, UniProt P00533, G719S)
# T13 construct: purchased DiscoverX (KINOMEscan)
# EPHA6 = biological target: T14, EPHA6 (Homo sapiens, UniProt Q9UF33)
# T14 construct: purchased DiscoverX (KINOMEscan)
# T14 sequence (Q9UF33 23-1036): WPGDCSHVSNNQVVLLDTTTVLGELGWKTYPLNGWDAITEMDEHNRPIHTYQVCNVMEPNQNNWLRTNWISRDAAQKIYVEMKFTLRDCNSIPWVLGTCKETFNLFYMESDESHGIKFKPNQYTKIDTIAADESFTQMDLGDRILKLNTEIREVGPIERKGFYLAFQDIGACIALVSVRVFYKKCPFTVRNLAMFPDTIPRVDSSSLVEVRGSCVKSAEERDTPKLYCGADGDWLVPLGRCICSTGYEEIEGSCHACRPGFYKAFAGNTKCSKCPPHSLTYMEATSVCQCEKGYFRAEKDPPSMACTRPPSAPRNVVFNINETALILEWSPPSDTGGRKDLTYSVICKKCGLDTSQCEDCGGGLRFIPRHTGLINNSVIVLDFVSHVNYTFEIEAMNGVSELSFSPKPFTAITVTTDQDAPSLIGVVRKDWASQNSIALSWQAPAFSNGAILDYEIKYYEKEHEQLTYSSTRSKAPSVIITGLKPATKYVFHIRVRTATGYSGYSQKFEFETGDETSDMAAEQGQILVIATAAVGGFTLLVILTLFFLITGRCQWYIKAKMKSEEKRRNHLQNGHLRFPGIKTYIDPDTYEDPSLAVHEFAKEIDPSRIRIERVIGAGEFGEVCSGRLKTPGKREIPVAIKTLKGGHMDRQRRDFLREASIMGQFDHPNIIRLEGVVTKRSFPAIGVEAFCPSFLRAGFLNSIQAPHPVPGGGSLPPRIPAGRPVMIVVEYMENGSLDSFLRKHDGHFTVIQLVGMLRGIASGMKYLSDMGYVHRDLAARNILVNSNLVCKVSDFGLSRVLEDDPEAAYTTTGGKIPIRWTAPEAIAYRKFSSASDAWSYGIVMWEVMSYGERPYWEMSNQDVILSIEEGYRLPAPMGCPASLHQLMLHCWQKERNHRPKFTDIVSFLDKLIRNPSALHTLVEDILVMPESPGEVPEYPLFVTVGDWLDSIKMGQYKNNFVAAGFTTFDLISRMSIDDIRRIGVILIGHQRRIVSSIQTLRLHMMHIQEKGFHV
# EPHA8 = biological target: T15, EPHA8 (Homo sapiens, UniProt P29322)
# T15 construct: purchased DiscoverX (KINOMEscan)
# EPHB4 = biological target: T16, EPHB4 (Homo sapiens, UniProt P54760)
# T16 construct: purchased DiscoverX (KINOMEscan)
# FLT1 = biological target: T17, FLT1 (Homo sapiens, UniProt P17948)
# T17 construct: purchased DiscoverX (KINOMEscan)
# FLT3(D835H) = biological target: T18, FLT3(D835H) (Homo sapiens, UniProt P36888, D835H)
# T18 construct: purchased DiscoverX (KINOMEscan)
# FLT3(K663Q) = biological target: T19, FLT3(K663Q) (Homo sapiens, UniProt P36888, K663Q)
# T19 construct: purchased DiscoverX (KINOMEscan)
# FRK = biological target: T20, FRK (Homo sapiens, UniProt P42685)
# T20 construct: purchased DiscoverX (KINOMEscan)
# ICK = biological target: T21, ICK (Homo sapiens, UniProt Q9UPZ9)
# T21 construct: purchased DiscoverX (KINOMEscan)
# T21 sequence (Q9UPZ9 whole entry): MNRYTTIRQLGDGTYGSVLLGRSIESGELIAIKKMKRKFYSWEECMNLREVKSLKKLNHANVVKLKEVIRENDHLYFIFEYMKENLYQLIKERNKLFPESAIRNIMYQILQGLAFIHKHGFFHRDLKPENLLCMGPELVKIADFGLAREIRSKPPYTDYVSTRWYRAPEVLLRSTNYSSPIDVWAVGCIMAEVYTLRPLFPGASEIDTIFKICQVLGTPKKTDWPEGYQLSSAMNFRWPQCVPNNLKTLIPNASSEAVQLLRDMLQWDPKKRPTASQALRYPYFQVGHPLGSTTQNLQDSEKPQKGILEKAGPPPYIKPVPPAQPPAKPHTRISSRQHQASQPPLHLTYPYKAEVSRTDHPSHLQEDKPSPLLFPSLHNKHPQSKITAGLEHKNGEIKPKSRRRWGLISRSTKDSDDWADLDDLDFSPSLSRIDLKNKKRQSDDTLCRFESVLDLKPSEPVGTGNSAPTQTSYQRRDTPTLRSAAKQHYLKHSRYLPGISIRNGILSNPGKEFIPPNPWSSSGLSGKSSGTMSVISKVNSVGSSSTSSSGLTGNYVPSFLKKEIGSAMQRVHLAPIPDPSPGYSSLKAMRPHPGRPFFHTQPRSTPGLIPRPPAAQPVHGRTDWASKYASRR
# INSRR = biological target: T22, INSRR (Homo sapiens, UniProt P14616)
# T22 construct: purchased DiscoverX (KINOMEscan)
# IRAK1 = biological target: T23, IRAK1 (Homo sapiens, UniProt P51617)
# T23 construct: purchased DiscoverX (KINOMEscan)
# T23 sequence (P51617 whole entry): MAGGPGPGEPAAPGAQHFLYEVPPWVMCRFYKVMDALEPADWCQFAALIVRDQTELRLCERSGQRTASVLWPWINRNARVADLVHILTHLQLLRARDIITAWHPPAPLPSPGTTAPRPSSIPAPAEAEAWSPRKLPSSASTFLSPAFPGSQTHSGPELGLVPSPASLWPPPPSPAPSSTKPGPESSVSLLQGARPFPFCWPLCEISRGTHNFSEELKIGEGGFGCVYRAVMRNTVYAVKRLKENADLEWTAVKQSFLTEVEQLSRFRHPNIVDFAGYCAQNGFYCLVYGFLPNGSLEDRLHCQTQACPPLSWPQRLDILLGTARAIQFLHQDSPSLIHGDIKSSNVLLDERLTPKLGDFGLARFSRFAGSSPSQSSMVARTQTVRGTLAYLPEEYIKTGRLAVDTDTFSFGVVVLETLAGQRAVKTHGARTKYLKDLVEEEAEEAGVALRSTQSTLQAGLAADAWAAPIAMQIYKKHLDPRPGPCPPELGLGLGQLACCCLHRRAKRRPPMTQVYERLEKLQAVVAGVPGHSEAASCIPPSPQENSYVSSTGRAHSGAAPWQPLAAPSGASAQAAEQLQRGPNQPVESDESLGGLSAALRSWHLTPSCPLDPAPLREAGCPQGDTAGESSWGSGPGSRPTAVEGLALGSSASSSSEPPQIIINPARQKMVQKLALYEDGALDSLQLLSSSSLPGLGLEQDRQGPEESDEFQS
# ITK = biological target: T24, ITK (Homo sapiens, UniProt Q08881)
# T24 construct: purchased DiscoverX (KINOMEscan)
# KIT(L576P) = biological target: T25, KIT(L576P) (Homo sapiens, UniProt P10721, L576P)
# T25 construct: purchased DiscoverX (KINOMEscan)
# LCK = biological target: T26, LCK (Homo sapiens, UniProt P06239)
# T26 construct: purchased DiscoverX (KINOMEscan)
# LRRK2 = biological target: T27, LRRK2 (Homo sapiens, UniProt Q5S007)
# T27 construct: purchased DiscoverX (KINOMEscan)
# MAP3K2 = biological target: T28, MAP3K2 (Homo sapiens, UniProt Q9Y2U5)
# T28 construct: purchased DiscoverX (KINOMEscan)
# MAP4K5 = biological target: T29, MAP4K5 (Homo sapiens, UniProt Q9Y4K4)
# T29 construct: purchased DiscoverX (KINOMEscan)
# MARK3 = biological target: T30, MARK3 (Homo sapiens, UniProt P27448)
# T30 construct: purchased DiscoverX (KINOMEscan)
# MEK2 = biological target: T31, MEK2 (Homo sapiens, UniProt P36507)
# T31 construct: purchased DiscoverX (KINOMEscan)
# MEK3 = biological target: T32, MEK3 (Homo sapiens, UniProt P46734)
# T32 construct: purchased DiscoverX (KINOMEscan)
# MRCKB = biological target: T33, MRCKB (Homo sapiens, UniProt Q9Y5S2)
# T33 construct: purchased DiscoverX (KINOMEscan)
# NEK1 = biological target: T34, NEK1 (Homo sapiens, UniProt Q96PY6)
# T34 construct: purchased DiscoverX (KINOMEscan)
# SNRK = biological target: T35, SNRK (Homo sapiens, UniProt Q9NRH2)
# T35 construct: purchased DiscoverX (KINOMEscan)
# T35 sequence (Q9NRH2 whole entry): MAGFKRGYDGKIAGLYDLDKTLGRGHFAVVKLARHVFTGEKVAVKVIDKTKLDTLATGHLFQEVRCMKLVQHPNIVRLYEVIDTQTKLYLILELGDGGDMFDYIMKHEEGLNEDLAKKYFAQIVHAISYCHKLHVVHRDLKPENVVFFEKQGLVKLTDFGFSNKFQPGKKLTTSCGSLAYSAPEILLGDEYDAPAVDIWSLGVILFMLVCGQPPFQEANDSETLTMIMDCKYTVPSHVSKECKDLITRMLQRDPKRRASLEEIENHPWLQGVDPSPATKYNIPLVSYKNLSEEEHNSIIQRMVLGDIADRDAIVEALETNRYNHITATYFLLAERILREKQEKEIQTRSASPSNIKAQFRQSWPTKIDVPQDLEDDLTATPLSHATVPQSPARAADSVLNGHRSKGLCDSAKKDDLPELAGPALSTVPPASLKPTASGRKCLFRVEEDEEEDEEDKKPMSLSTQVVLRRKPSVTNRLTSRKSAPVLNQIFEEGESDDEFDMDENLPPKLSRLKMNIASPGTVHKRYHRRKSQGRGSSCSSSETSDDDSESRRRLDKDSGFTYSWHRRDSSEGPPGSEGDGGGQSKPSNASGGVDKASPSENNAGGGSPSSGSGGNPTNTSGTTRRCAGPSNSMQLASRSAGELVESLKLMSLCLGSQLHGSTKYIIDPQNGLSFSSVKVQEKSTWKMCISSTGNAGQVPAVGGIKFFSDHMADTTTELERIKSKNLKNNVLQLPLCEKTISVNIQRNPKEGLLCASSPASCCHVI
# SRPK3 = biological target: T36, SRPK3 (Homo sapiens, UniProt Q9UPE1)
# T36 construct: purchased DiscoverX (KINOMEscan)
# T36 sequence (Q9UPE1 whole entry): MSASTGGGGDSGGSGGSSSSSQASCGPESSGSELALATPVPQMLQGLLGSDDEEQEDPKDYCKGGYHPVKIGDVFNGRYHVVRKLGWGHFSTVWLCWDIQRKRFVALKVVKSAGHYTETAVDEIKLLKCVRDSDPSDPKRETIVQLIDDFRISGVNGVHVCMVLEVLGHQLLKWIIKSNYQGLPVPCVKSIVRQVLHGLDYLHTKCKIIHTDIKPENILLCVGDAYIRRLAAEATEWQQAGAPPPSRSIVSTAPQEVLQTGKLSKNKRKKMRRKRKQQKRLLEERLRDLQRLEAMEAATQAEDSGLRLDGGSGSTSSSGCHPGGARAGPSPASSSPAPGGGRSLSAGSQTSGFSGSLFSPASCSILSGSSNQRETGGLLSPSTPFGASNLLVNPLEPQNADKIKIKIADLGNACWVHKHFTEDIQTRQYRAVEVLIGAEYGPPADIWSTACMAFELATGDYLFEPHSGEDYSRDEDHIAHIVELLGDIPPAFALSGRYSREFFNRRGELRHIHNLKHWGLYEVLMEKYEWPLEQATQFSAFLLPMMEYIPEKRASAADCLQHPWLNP
# YSK1 = biological target: T37, YSK1 (Homo sapiens, UniProt O00506)
# T37 construct: purchased DiscoverX (KINOMEscan)
smiles,measurement,setting,value
COc1cc(/C=C2\N=C(N)NC2=O)ccc1O [Polyandrocarpamine A],Score,[1],100
same,Score,[2],85
same,Score,ACVR2B,99
same,Score,ALK,100
same,Score,AMPK-alpha2,87
same,Score,CAMK2B,90
same,Score,CDK11,100
same,Score,CDKL1,100
same,Score,CSNK2A2,26
same,Score,DDR2,69
same,Score,DMPK2,99
same,Score,EGFR(G719C),95
same,Score,EGFR(G719S),100
same,Score,EPHA6,100
same,Score,EPHA8,100
same,Score,EPHB4,100
same,Score,FLT1,100
same,Score,FLT3(D835H),94
same,Score,FLT3(K663Q),100
same,Score,FRK,100
same,Score,ICK,100
same,Score,INSRR,81
same,Score,IRAK1,28
same,Score,ITK,94
same,Score,KIT(L576P),99
same,Score,LCK,100
same,Score,LRRK2,100
same,Score,MAP3K2,100
same,Score,MAP4K5,100
same,Score,MARK3,100
same,Score,MEK2,100
same,Score,MEK3,98
same,Score,MRCKB,100
same,Score,NEK1,100
same,Score,SNRK,100
same,Score,SRPK3,100
same,Score,YSK1,100
